This note sets out measurements from patent publication US11149230B2, “Process for extracting carboxylic acids produced by anaerobic fermentation from fermentable biomass” (AFYREN, priority 2015, dated 2021).

In assay [1] the test system is optimized anaerobic microbial mix. The experiment in a line: Test 3: comparison of fermentation in the presence or absence of octanoic acid. Type of assay: cell-based. As to conditions: restoration waste 50 g/l dry matter, initial addition of 0.7 g/l.
Method: Two fermentations of grass cuttings/mowings in non-sterile mode, at a concentration of 25 g/l of dry matter, in an anaerobic bioreactor with a working volume of 2 l, operated in mesophilic mode (38° C.), were carried out in parallel for 160 h. In the first experiment, after inoculation of an optimized anaerobic microbial mix, an initial addition of heptanoic acid in an amount of 2.8 g/l was carried out. […] The second fermentation, which is de facto a control culture, was carried out in parallel under the same conditions except for the addition of heptanoic acid.
For assay [2] the test system is unchanged. The experiment in a line: Test 2: comparison of fermentations in the presence or absence of heptanoic acid. Type of assay: cell-based. To be noted: grass cuttings/mowings 25 g/l dry matter, 38° C., 160 h, initial addition of 2.8 g/l. Here is the method:
Two fermentations of grass cuttings/mowings in non-sterile mode, at a concentration of 25 g/l of dry matter, in an anaerobic bioreactor with a working volume of 2 l, operated in mesophilic mode (38° C.), were carried out in parallel for 160 h. In the first experiment, after inoculation of an optimized anaerobic microbial mix, an initial addition of heptanoic acid in an amount of 2.8 g/l was carried out. This presence of heptanoic acid makes it possible to understand the biocompatible nature of an extraction carried out with this type of solvent. Indeed, the culture medium after extraction is reintroduced into the bioreactor and may contain traces of extraction solvent up to the amount of their solubility threshold. The second fermentation, which is de facto a control culture, was carried out in parallel under the same conditions except for the addition of heptanoic acid.
During these fermentations, liquid-phase and gas-phase metabolite monitorings were carried out. At the end of fermentation, the yields obtained regarding the production of volatile fatty acids is 0.33 g of VFA/g of dry matter in the case of the experiment with the addition of heptanoic acid, and 0.39 g of VFA/g of dry matter for the control fermentation. […]

Each structure is given as a SMILES string.

Take `CCCCCCCC(=O)O` [octanoic acid, Octanoic acid]: the “yield of production of volatile fatty acids at the end of fermentation” value in assay [1] is listed as 0.3 g of VFA/g of dry matter.

As for `CCCCCCC(=O)O` [heptanoic acid, Heptanoic acid], in assay [2], the “negative effect on the production of volatile fatty acids versus control fermentation” value was “about 15%” and the “yield of production of volatile fatty acids at the end of fermentation” value is on record as 0.33 g of VFA/g of dry matter.
